Data on 54 molecules can be found in patent publication US8501446B2 (Vertex Pharmaceuticals Incorporated, priority 2004, dated 2013).

One experiment addresses T1, ROCK I (AA 6-553) (Homo sapiens, UniProt Q13464).
T1 construct: ROCK I (AA 6-553)
Kind of experiment: ROCK inhibition assay, standard coupled enzyme system ("Enzyme"). The settings on record: enzyme-linked assay. In kind it is biochemical. The procedure:
Compounds were screened for their ability to inhibit ROCK I (AA 6-553) activity using a standard coupled enzyme system (Fox et al. (1998) Protein Sci. 7, 2249). Reactions were carried out in a solution containing 100 mM HEPES (pH 7.5), 10 mM MgCl2, 25 mM NaCl, 2 mM DTT and 1.5% DMSO. Final substrate concentrations in the assay were 45 μM ATP (Sigma Chemicals, St Louis, Mo.) and 200 μM peptide (American Peptide, Sunnyvale, Calif.). Reactions were carried out at 30° C. and 45 nM ROCK L. Final concentrations of the components of the coupled enzyme system were 2.5 mM phosphoenolpyruvate, 350 μM NADH, 30 μg/ml pyruvate kinase and 10 μg/ml lactate dehydrogenase.

Experiment [1] has as its target T2, full length Aurora-A (AA 1-403) (Homo sapiens, UniProt O14965).
T2 construct: full length Aurora-A (AA 1-403)
T2 sequence (O14965 1-403): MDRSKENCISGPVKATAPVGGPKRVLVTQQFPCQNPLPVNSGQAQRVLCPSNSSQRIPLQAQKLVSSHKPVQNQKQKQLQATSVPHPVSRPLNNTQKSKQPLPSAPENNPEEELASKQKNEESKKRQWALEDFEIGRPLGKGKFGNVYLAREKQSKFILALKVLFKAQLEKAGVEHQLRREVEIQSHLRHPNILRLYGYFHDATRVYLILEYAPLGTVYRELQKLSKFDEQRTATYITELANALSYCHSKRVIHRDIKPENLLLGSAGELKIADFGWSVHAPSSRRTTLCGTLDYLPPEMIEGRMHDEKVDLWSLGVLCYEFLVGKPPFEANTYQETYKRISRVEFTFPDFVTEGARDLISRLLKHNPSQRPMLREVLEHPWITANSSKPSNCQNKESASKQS
Put plainly: Aurora-A inhibition assay, standard coupled enzyme system. It counts as biochemical. Conditions: average Ki if more than one value determined. The procedure: Compounds were screened for their ability to inhibit full length Aurora-A (AA 1-403) activity using a standard coupled enzyme system (Fox et al., Protein Sci. 7, pp. 2249 (1998)). Reactions were carried out in a solution containing 100 mM HEPES (pH 7.5), 10 mM MgCl2, 25 mM NaCl, 300 μM NADH, 1 mM DTT and 3% DMSO. Final substrate concentrations in the assay were 200 μM ATP (Sigma Chemicals, St Louis, Mo.) and 800 μM peptide (LRRASLG, American Peptide, Sunnyvale, Calif.). Reactions were carried out at 30° C. and 35 nM Aurora-A. Final concentrations of the components of the coupled enzyme system were 2.5 mM phosphoenolpyruvate, 200 μM NADH, 60 μg/ml pyruvate kinase and 20 μg/ml lactate dehydrogenase.
An assay stock buffer solution was prepared containing all of the reagents listed above with the exception of ATP and the test compound of interest. The assay stock buffer solution (60 μl) was incubated in a 96 well plate with 2 μl of the test compound of interest at final concentrations spanning 0.002 μM to 30 μM at 30° C. for 10 min. Typically, a 12 point titration was conducted by preparing serial dilutions (from 1 mM compound stocks) with DMSO of the test compounds in daughter plates. The reaction was initiated by the addition of 5 μl of ATP (final concentration 200 μM). Rates of reaction were obtained using a Molecular Devices Spectramax plate reader (Sunnyvale, Calif.) over 10 min at 30° C. The Ki values were determined from the rate data as a function of inhibitor concentration using computerized nonlinear regression (Prism 3.0, Graphpad Software, San Diego, Calif.). Aurora-C activity was screened in a similar manner using Aurora-C protein. Aurora-B activity was screened using a radioactive assay, such as described in Examples 1 and 2, but using Aurora-B protein.

A value given as a limit tells only on which side of the number the result lay.

T1 sequence (Q13464 6-553, species assumed): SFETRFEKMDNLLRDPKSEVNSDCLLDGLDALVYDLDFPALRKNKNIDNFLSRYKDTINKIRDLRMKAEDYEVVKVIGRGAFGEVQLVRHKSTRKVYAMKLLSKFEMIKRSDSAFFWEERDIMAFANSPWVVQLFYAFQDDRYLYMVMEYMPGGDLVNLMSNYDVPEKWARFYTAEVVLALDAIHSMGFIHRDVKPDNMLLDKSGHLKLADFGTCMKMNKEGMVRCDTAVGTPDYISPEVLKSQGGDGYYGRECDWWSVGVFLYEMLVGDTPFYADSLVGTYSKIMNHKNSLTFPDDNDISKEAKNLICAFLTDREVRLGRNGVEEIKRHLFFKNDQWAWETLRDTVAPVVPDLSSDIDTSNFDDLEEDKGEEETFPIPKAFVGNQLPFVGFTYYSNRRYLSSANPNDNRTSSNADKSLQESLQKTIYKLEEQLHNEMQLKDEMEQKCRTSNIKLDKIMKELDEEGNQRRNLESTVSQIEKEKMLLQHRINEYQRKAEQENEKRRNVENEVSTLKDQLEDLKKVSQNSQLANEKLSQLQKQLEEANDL

As usually defined, the Ki is a measure of affinity in units of concentration, obtained from inhibition or displacement. Low readings indicate higher affinity, high ones lower affinity. With `C[C@@H](Nc1nc(-c2c[nH]c3ncc(Cl)cc23)ncc1F)c1ccc(N)cc1` [Compound 313], the values for the Ki (on ROCK I (AA 6-553); in experiment [1]) were 500 to 5000 nM and under 500 nM, respectively.

In turn, `c1ccc(CNc2cccc(-c3c[nH]c4ncc(-c5ccccc5)cc34)n2)cc1` [Compound 269] returned a Ki in experiment [1] of under 500 nM.

For `C[C@H](Nc1nc(-c2c[nH]c3ncc(Cl)cc23)ncc1F)C(=O)NC1CCS(=O)(=O)C1` (stereo partly drawn) [Compound 390], the Ki (on ROCK I (AA 6-553); in experiment [1]) was 500 to 5000 nM each time.

`C[C@H](Nc1nc(-c2c[nH]c3ncc(CO)cc23)ncc1F)c1ccc(F)cc1` [Compound 334]: the Ki in experiment [1] is under 500 nM.

Take `C[C@H](Nc1nc(-c2c[nH]c3ncc(C#CCO)cc23)ncc1F)c1ccc(F)cc1` [Compound 378]: the results for the Ki (at ROCK I (AA 6-553); in experiment [1]) were 500 to 5000 nM and under 500 nM, respectively.

Turning to `CN1CCN(c2cccc(-c3c[nH]c4ncc(Cl)cc34)n2)CC1` [Compound 275], the Ki (on ROCK I (AA 6-553); in experiment [1]) was 500 to 5000 nM each time.

In experiment [1], `CC(C)C(=O)Nc1cccc(-c2c[nH]c3ncc(Cl)cc23)n1` [Compound 279] showed a Ki of 500 to 5000 nM.

In the case of `CCOc1cnc(-c2c[nH]c3ncc(Cl)cc23)nc1N[C@@H](C)C(=O)NCC(F)(F)F` [Compound 408], the Ki at ROCK I (AA 6-553) is 500 to 5000 nM; in experiment [1], under 500 nM.

As to `N#Cc1cc(-c2c[nH]c3ncc(Cl)cc23)nc(N2CCNCC2)c1` [Compound 399], the Ki (on ROCK I (AA 6-553); in experiment [1]) was under 500 nM each time.

For `c1ccc(Nc2cccc(-c3c[nH]c4ncc(-c5ccccc5)cc34)n2)cc1` [Compound 265], the results for the Ki (at ROCK I (AA 6-553); in experiment [1]) were 500 to 5000 nM and under 500 nM, respectively.

Take `CC(C)(C)OC(=O)N(Cc1ccc(S(C)(=O)=O)cc1)c1cccc(-c2c[nH]c3ncc(Cl)cc23)n1` [Compound 245]: the Ki in experiment [1] was under 500 nM.

With `O=C(Nc1cccc(-c2c[nH]c3ncc(Cl)cc23)n1)c1ccccc1Cl` [Compound 281], the Ki in experiment [1] is under 500 nM.

As to `Nc1cccc(-c2c[nH]c3ncc(Cl)cc23)n1` [Compound 246], the Ki (at ROCK I (AA 6-553); in experiment [1]) was 500 to 5000 nM in each case.

Regarding `CC(C)NC(=O)[C@H](C)Nc1nc(-c2c[nH]c3ncc(Cl)cc23)ncc1F` [Compound 363], the Ki at ROCK I (AA 6-553) is 500 to 5000 nM; in experiment [1], under 500 nM.

As to `CC(=O)N1CCC(CNc2nc(-c3c[nH]c4ncc(Cl)cc34)ncc2F)CC1` [Compound 383], the Ki at ROCK I (AA 6-553) is 500 to 5000 nM; in experiment [1], under 500 nM.

As to `COc1ccc(CNc2cccc(-c3c[nH]c4ncc(Cl)cc34)n2)cc1OC` [Compound 297], the figures for the Ki (at ROCK I (AA 6-553); in experiment [1]) were 500 to 5000 nM and under 500 nM, respectively.

As for `Clc1cnc2[nH]cc(-c3cccc(NCCc4ccccc4)n3)c2c1` [Compound 264], the Ki was 500 to 5000 nM at ROCK I (AA 6-553) and under 500 nM in experiment [1].

Consider `C[C@H](Nc1nc(-c2c[nH]c3ncc(Cl)cc23)ncc1F)C(=O)NCCF` [Compound 365], for which the Ki on ROCK I (AA 6-553) was 500 to 5000 nM; in experiment [1], under 500 nM.

As for `Fc1cnc(-c2c[nH]c3ncc(Cl)cc23)nc1NCc1ccncc1` [Compound 318], the Ki on ROCK I (AA 6-553) is 500 to 5000 nM; in experiment [1], under 500 nM.

For `Fc1cnc(-c2c[nH]c3ncc(Cl)cc23)nc1SCc1ccc(Cl)cc1` [Compound 308], the Ki (at ROCK I (AA 6-553); in experiment [1]) was 500 to 5000 nM in each case.

In experiment [1], `C#Cc1cc(-c2c[nH]c3ncc(Cl)cc23)nc(N2CCNCC2)c1` [Compound 412] returned a Ki of under 500 nM.

In experiment [1], `Nc1nc(-c2c[nH]c3ncc(Cl)cc23)ncc1F` [Compound 332] returned a Ki of under 500 nM.

For `O=C(Cc1ccccc1)Nc1cccc(-c2c[nH]c3ncc(Cl)cc23)n1` [Compound 280], the Ki in experiment [1] is under 500 nM.

`CC(C)NC(=O)CCNC(=O)[C@H](C)Nc1nc(-c2c[nH]c3ncc(Cl)cc23)ncc1F` [Compound 468] had a Ki in experiment [1] of under 500 nM.

For `NCCC[C@H](Nc1nc(-c2c[nH]c3ncc(Cl)cc23)ncc1F)C(=O)O` [Compound 403], the Ki in experiment [1] fell in the range of 500 to 5000 nM.

On ROCK I (AA 6-553), `NC(=O)c1ccc(-c2c[nH]c3ncc(CCc4ccccc4)cc23)cc1` [Compound 303] had a Ki of under 500 nM.

`C[C@H](Nc1nc(-c2c[nH]c3ncc(Cl)cc23)ncc1F)C(=O)NCCC(=O)O` [Compound 466] displayed a Ki in experiment [1] of 500 to 5000 nM.

`N#Cc1ccnc(-c2c[nH]c3ncc(Cl)cc23)c1` [Compound 353] showed a Ki on ROCK I (AA 6-553) of 500 to 5000 nM.

Take `Clc1cnc2[nH]cc(-c3ncccn3)c2c1` [Compound 319]: the Ki in experiment [1] lay in the range of 500 to 5000 nM.

In turn, `CNC(=O)CCNC(=O)[C@H](C)Nc1nc(-c2c[nH]c3ncc(Cl)cc23)ncc1F` [Compound 467] displayed a Ki in experiment [1] of under 500 nM.

In the case of `NC(=O)c1ccc(-c2c[nH]c3ncc(Sc4ccccc4)cc23)cc1` [Compound 304], the Ki at ROCK I (AA 6-553) is 500 to 5000 nM.

`Nc1cccc(-c2c[nH]c3ncc(-c4ccccc4)cc23)n1` [Compound 268] yielded a Ki in experiment [1] of 500 to 5000 nM.

In the case of `CC(=O)Nc1cccc(-c2c[nH]c3ncc(Cl)cc23)n1` [Compound 283], the Ki in experiment [1] lay in the range of 500 to 5000 nM.

For `C[C@H](Nc1nc(-c2c[nH]c3ncc(Cl)cc23)ncc1F)c1cccc(OCCN(C)C)c1` [Compound 320], in experiment [1], the Ki was under 500 nM.

In experiment [1], `C[C@H](Nc1nc(-c2c[nH]c3ncc(N)cc23)ncc1F)c1ccc(F)cc1` [Compound 343] yielded a Ki of 500 to 5000 nM.

As to `CNc1cccc(-c2c[nH]c3ncccc23)n1` [Compound 272], the Ki in experiment [1] fell in the range of 500 to 5000 nM.

In experiment [1], `CCOC(=O)Nc1cnc2[nH]cc(-c3ncc(F)c(N[C@@H](C)c4ccc(F)cc4)n3)c2c1` [Compound 358] registered an inhibitory constant (Ki) of 500 to 5000 nM.

For the molecule `CN1CCC(Nc2nc(-c3c[nH]c4ncc(Cl)cc34)ncc2F)C1` (stereo not drawn) [Compound 352], the Ki in experiment [1] was under 500 nM.

In experiment [1], `Fc1cnc(-c2c[nH]c3ncc(Cl)cc23)nc1OCc1ccc(Cl)cc1` [Compound 314] yielded an inhibitory constant (Ki) of 500 to 5000 nM.

With `OCc1cc(-c2c[nH]c3ncc(Cl)cc23)nc(N2CCNCC2)c1` [Compound 405], the Ki in experiment [1] is under 500 nM.

With `CNS(=O)(=O)c1ccc(-c2c[nH]c3ncc(-c4ccccc4)cc23)cc1` [Compound 233], the Ki on ROCK I (AA 6-553) lay within 500 to 5000 nM.

In experiment [1], `CCNC(=O)c1cccc(-c2c[nH]c3ncc(-c4cc(Cl)cc(Cl)c4)cc23)c1` [Compound 226] displayed a Ki of 500 to 5000 nM.

With `O=C(Nc1cccc(-c2c[nH]c3ncc(Cl)cc23)n1)c1cccc(Cl)c1` [Compound 282], the Ki in experiment [1] is under 500 nM.

As to `CC(C)NS(=O)(=O)CCNC(=O)[C@H](C)Nc1nc(-c2c[nH]c3ncc(Cl)cc23)ncc1F` [Compound 469], the Ki in experiment [1] is under 500 nM.

As for `C[Si](C)(C)c1[nH]c2ncc(-c3ccccc3)cc2c1-c1ccccc1` [Compound 210], the Ki in experiment [1] was 500 to 5000 nM.

`CC[C@H](C)NC(=O)[C@H](C)Nc1nc(-c2c[nH]c3ncc(Cl)cc23)ncc1F` [Compound 465] had a Ki in experiment [1] of under 500 nM.

`O=C(Nc1cccc(-c2c[nH]c3ncc(Cl)cc23)n1)C1CCCCC1` [Compound 288] showed a Ki in experiment [1] of under 500 nM.

Molecule `CC(C)CCNC(=O)[C@H](C)Nc1nc(-c2c[nH]c3ncc(Cl)cc23)ncc1F` [Compound 464] returned a Ki in experiment [1] of 500 to 5000 nM.

`C[C@H](Nc1nc(-c2c[nH]c3ncc(C(=O)O)cc23)ncc1F)c1ccc(F)cc1` [Compound 350] showed a Ki in experiment [1] of 500 to 5000 nM.

`Clc1cnc2[nH]cc(-c3cccc(N4CCCC4)n3)c2c1` [Compound 241] came in with a Ki in experiment [1] of 500 to 5000 nM.

As to `NC(=O)c1ccc(-c2c[nH]c3ncc(-c4ccsc4)cc23)cc1` [Compound 236], the Ki in experiment [1] is under 500 nM.

Take `C[C@H](Nc1nc(-c2c[nH]c3ncc(C(=O)N(C)C)cc23)ncc1F)c1ccc(F)cc1` [Compound 346]: the Ki in experiment [1] was 500 to 5000 nM.

The molecule `c1ccc(-c2cnc3[nH]cc(-c4cccc(NC5CCCCC5)n4)c3c2)cc1` [Compound 287] registered a Ki in experiment [1] of under 500 nM.

`CS(=O)(=O)Nc1ccc(-c2c[nH]c3ncc(-c4ccccc4)cc23)cc1` [Compound 234]: in experiment [1], the inhibition constant Ki was under 500 nM.
